{"source": "patent US20140199372A1", "about": "“MICROBIAL GROWTH FACTORS” (NORTHEASTERN UNIVERSITY, priority 2011, published 2014)", "key": {"KLE1280": {"test_system": "KLE1280", "test": "Induction of growth of KLE1280 by quinones on plates", "assay_type": "cell-based, Porphyromonas sp. KLE1280", "procedure": "Serial dilutions of dental plaque from a healthy individual were spread onto Fastidious Anaerobe Agar plates containing 5% sheep blood and 5% pooled human saliva (FBS) and incubated anaerobically. Small colonies growing next to large ones on dense plates were picked and spread onto fresh FBS plates. A helper mix of colonies growing around individual small colonies was spotted on these plates. Isolates were identified that depended for growth on this mix. If E. coli produces a growth factor, its identification can be efficiently performed, since a complete knockout library of this species is available. Testing knockout mutants identifies those that lost their ability to help growth of the uncultured organism, which then leads to the identification of the biosynthetic pathway of the growth factor. […] This organism is closely related to Porphyromonas sp. oral taxon 279 (99% similarity by 16S rRNA gene sequencing) (96% similarity to closest type strain Porphyromonas catoniae). In particular, KLE1280 is closely related to Porphyromonas catoniae (96% similarity by 16S rRNA gene sequencing). […] This deletion mutant has the menaquinone biosynthesis genes deleted. […] 5 genes in the menaquinone biosynthesis pathway are knocked out in this mutant (http://www.shigen.nig.ac.jp/ecoli/pec/quickSearch.List.DeletionsDetailAction.do?fromListFlag=true&classId=4&deId=226). E. coli strains with single gene deletions in the menaquinone biosynthesis pathway were tested for induction of growth.\nDifferent quinones (Q), commercially available and/or isolated from E. coli and Micrococcus luteus were tested for induction of growth of KLE1280.\nDifferent concentrations of MK4 were spotted on media with and without blood (5%) or hemin (10 μg/ml) or hemoglobin (100 μg/ml)."}, "Flaviramulus sp. KLE1215": {"test_system": "Flaviramulus sp. KLE1215", "test": "Growth of KLE1215 in liquid culture with quinones delivered in liposomes", "assay_type": "cell-based", "settings": "R2A broth, 50% artificial sea salts, 0.001% Fe(II), MK4 250 μM to 1.5 mM, MK6 and MK6 chromenols purified from KLE1215", "procedure": "The growth of Flaviramulus sp. KLE1215 is enhanced by the addition of purified quinone-like compounds when they are delivered in liposomes. […] Growth of KLE1215 induced with varying concentrations of MK4 delivered in liposomes. 5 ml liquid cultures of KLE1215 were set up with no supplement (squares), empty liposomes as liposome control (triangles), liposomes loaded with 250 μM MK4 (cross), liposomes loaded with 500 μM MK4 liposomes (asterisk), liposomes loaded with 750 μM MK4 (circle), liposomes loaded with 1 mM MK4 (vertical line), liposomes loaded with 1.25 mM MK4 (dark line), and liposomes loaded with 1.5 mM MK4 (light line) is shown in FIG. 8. […] broth (without yeast extract) with 50% artificial sea salts supplemented with 0.001% Fe(II) was used for these cultures. Values represent the average of two independent cultures of KLE1215 in […] broth with 50% artificial sea salts supplemented with 0.001% Fe(II). […] 5 ml liquid cultures of KLE1215 were prepared with nothing added (squares), empty liposome as liposome control (triangles), liposomes loaded with MK6 from KLE1215 (cross), and liposomes loaded with MK6 chromenols from KLE1215 (asterisk). R2A broth (without yeast extract) with 50% artificial sea salts supplemented with 0.001% Fe(II) was used for these cultures. Values represent the average of independent cultures of KLE1215 in […] broth with 50% artificial sea salts supplemented with 0.001% Fe(II)."}, "Bizinio sp. KLE1402": {"test_system": "Bizinio sp. KLE1402", "test": "Growth of KLE1402 in liquid culture with quinone-loaded liposomes", "assay_type": "cell-based", "settings": "delivered by liposomes loaded with 500 μM MK4; R2A broth, 50% sea salts, 0.001% Fe(II)", "from_the_text": "Two isolates were streaked for isolation; the culturable helper on the left induces the growth of unculturable KLE1402 on the right only when it is close proximity. The closest relative to the dependent KLE1402 is Bizionia echini (96.6% Identity according to 16S rRNA gene sequence), from the family Flavobacteriaceae. The closest relative to the helper KLE1403 is Ruegeria lacuscaerulensis (98.4% identity by 16S rRNA gene sequence), from the class Alphaproteobacteria. E. coli induces the growth of KLE1402 (FIG. 11). KLE1402 spread evenly on R2A with 50% artificial sea salts and 0.001% Fe(II) with a dense spot of E. coli. […] KLE1402 spread evenly on R2A with 50% artificial sea salts and 0.001% Fe(II) with a dense spot of E. coli ΔubiG. KLE1402 grows with the addition of quinone-loaded liposomes (FIG. 13). Cells of KLE1402 were used to inoculate culture tubes with 5 ml R2A broth with 50% sea salts and 0.001% Fe(II). Tube A: no supplement, Tube B: Empty liposomes added, Tube C: Liposomes loaded with 500 μM MK4 added. KLE1402 grows with the addition of quinone-loaded liposomes (FIG. 14). 5 ml liquid cultures of KLE1402 were set up with no supplement (squares), empty liposomes as liposome control (triangles), liposomes loaded with 500 μM MK4 (cross). R2A broth with 50% artificial sea salts supplemented with 0.001% Fe(II) was used as media for these cultures. […]"}, "[1]": {"settings": "quinone isolated from M. luteus"}}, "note": "Where two headings read alike, the source gives them in different places."}
{"molecule": "COC1=C(OC)C(=O)C(C/C=C(\\C)CC/C=C(\\C)CC/C=C(\\C)CC/C=C(\\C)CC/C=C(\\C)CC/C=C(\\C)CC/C=C(\\C)CC/C=C(\\C)CCC=C(C)C)=C(C)C1=O", "note": "[Q9]", "values": [{"measurement": "Results: induction of growth of KLE1280", "setting": "KLE1280; quinone commercially available", "result": "No induction"}]}
{"molecule": "COC1=C(OC)C(=O)C(C/C=C(\\C)CC/C=C(\\C)CC/C=C(\\C)CC/C=C(\\C)CC/C=C(\\C)CC/C=C(\\C)CC/C=C(\\C)CC/C=C(\\C)CC/C=C(\\C)CCC=C(C)C)=C(C)C1=O", "note": "[Q10]", "values": [{"measurement": "Results: induction of growth of KLE1280", "setting": "KLE1280; quinone commercially available", "result": "No induction"}]}
{"molecule": "O=C(O)c1cc(O)c2ccccc2c1O", "note": "[DHNA, 1,4-dihydroxy-2-naphthoate]", "values": [{"measurement": "induction of growth of KLE1280", "setting": "KLE1280", "result": "showed induction of growth"}]}
{"molecule": "CC(C)=CCC/C(C)=C/CC/C(C)=C/CC/C(C)=C/CC1=C(C)C(=O)c2ccccc2C1=O", "note": "[Menaquinone4]", "values": [{"measurement": "growth of KLE1215", "setting": "Flaviramulus sp. KLE1215", "result": "growth-enhancing effects"}, {"measurement": "induction of growth of KLE1280", "setting": "KLE1280", "result": "induced growth"}, {"measurement": "Results: induction of growth of KLE1280", "setting": "KLE1280; quinone commercially available", "result": "Induction"}, {"measurement": "Results: induction of growth of KLE1280", "setting": "KLE1280; [1]", "result": "Induction"}, {"measurement": "induction of growth of KLE1280", "setting": "KLE1280; spotted on media with blood (5%) or hemin (10 μg/ml) or hemoglobin (100 μg/ml)", "result": "induced growth only in the presence of either of these 3 in the medium"}, {"measurement": "induction of growth of KLE1280", "setting": "KLE1280; substance alone", "result": "did not induce growth"}, {"measurement": "growth of KLE1402", "setting": "Bizinio sp. KLE1402", "result": "can induce the growth"}]}
{"molecule": "hemoglobin", "values": [{"measurement": "induction of growth of KLE1280", "setting": "KLE1280; substance alone", "result": "did not induce growth"}]}
{"molecule": "CC(C)=CCC/C(C)=C/CC/C(C)=C/CC/C(C)=C/CC/C(C)=C/CC1=C(C)C(=O)c2ccccc2C1=O", "note": "[Menaquinone5]", "values": [{"measurement": "Results: induction of growth of KLE1280", "setting": "KLE1280; [1]", "result": "Induction"}]}
{"molecule": "COC1=C(OC)C(=O)C(CC=C(C)C)=C(C)C1=O", "note": "[Q1]", "values": [{"measurement": "Results: induction of growth of KLE1280", "setting": "KLE1280; quinone commercially available", "result": "No induction"}]}
{"molecule": "CC(C)=CCC/C(C)=C/CC/C(C)=C/CC/C(C)=C/CC/C(C)=C/CC/C(C)=C/CC1=C(C)C(=O)c2ccccc2C1=O", "note": "[Menaquinone6]", "values": [{"measurement": "growth of KLE1215", "setting": "Flaviramulus sp. KLE1215", "result": "growth-enhancing effects"}, {"measurement": "Results: induction of growth of KLE1280", "setting": "KLE1280; [1]", "result": "Induction"}]}
{"molecule": "COC1=C(OC)C(=O)C(C/C=C(\\C)CCC=C(C)C)=C(C)C1=O", "note": "[Q2]", "values": [{"measurement": "Results: induction of growth of KLE1280", "setting": "KLE1280; quinone commercially available", "result": "No induction"}]}
{"molecule": "COC1C(=O)C(C)=C(C/C=C(\\C)CC/C=C(\\C)CC/C=C(\\C)CCC=C(C)C)C(=O)C1OC", "note": "(stereo not drawn) [Q4]", "values": [{"measurement": "Results: induction of growth of KLE1280", "setting": "KLE1280; quinone commercially available", "result": "No induction"}]}
{"molecule": "COC1=C(OC)C(=O)C(C/C=C(\\C)CC/C=C(\\C)CC/C=C(\\C)CC/C=C(\\C)CC/C=C(\\C)CC/C=C(\\C)CC/C=C(\\C)CCC=C(C)C)=C(C)C1=O", "note": "[Ubiquinone8]", "values": [{"measurement": "Results: induction of growth of KLE1280", "setting": "KLE1280; quinone isolated from E. coli", "result": "No induction"}]}
{"molecule": "CC(C)=CCC/C(C)=C/CC/C(C)=C/CC/C(C)=C/CC/C(C)=C/CC/C(C)=C/CC/C(C)=C/CC1=C(C)C(=O)c2ccccc2C1=O", "note": "[Menaquinone7]", "values": [{"measurement": "Results: induction of growth of KLE1280", "setting": "KLE1280; [1]", "result": "Very less induction (late)"}]}
{"molecule": "hemin", "values": [{"measurement": "induction of growth of KLE1280", "setting": "KLE1280; substance alone", "result": "did not induce growth"}]}
{"molecule": "CC(C)=CCC/C(C)=C/CC/C(C)=C/CC/C(C)=C/CC/C(C)=C/CC/C(C)=C/CC/C(C)=C/CC/C(C)=C/CC1=C(C)C(=O)c2ccccc2C1=O", "note": "[Menaquinone8]", "values": [{"measurement": "Results: induction of growth of KLE1280", "setting": "KLE1280; quinone isolated from E. coli", "result": "No induction"}, {"measurement": "Results: induction of growth of KLE1280", "setting": "KLE1280; [1]", "result": "Very less induction (late)"}]}
{"molecule": "menachromenal 6 [MK6 chromenols]", "values": [{"measurement": "growth of KLE1215", "setting": "Flaviramulus sp. KLE1215", "result": "growth-enhancing effects"}]}
{"molecule": "COC1=C(OC)C(=O)C(C/C=C(\\C)CC/C=C(\\C)CC/C=C(\\C)CC/C=C(\\C)CC/C=C(\\C)CC/C=C(\\C)CCC=C(C)C)=C(C)C1=O", "note": "[Ubiquinone7]", "values": [{"measurement": "Results: induction of growth of KLE1280", "setting": "KLE1280; quinone isolated from E. coli", "result": "No induction"}]}
